# Assay results published in ChEMBL document CHEMBL5058564, “EUbOPEN Chemogenomics Library 2 (Incucyte)” (2022).
# Legend:
# Format in all cases: toxicity, cell-based
# HEK-293T = assay: Incucyte cell viability with HEK293T; details: human, 10 µM, compound concentration 10 uM
# Fibroblast = assay: Incucyte cell viability with human fibroblast; details: 10 µM, compound concentration 10 uM
# U2OS = assay: Incucyte cell viability with U2OS; details: human, 10 µM, compound concentration 10 uM
# [1] = 6 h, replicate number 1, timepoint 6 hours
# [2] = 6 h, replicate number 2, timepoint 6 hours
# [3] = 12 h, replicate number 1, timepoint 12 hours
# [4] = 12 h, replicate number 2, timepoint 12 hours
# [5] = 18 h, replicate number 1, timepoint 18 hours
# [6] = 18 h, replicate number 2, timepoint 18 hours
# [7] = 24 h, replicate number 1, timepoint 24 hours
# [8] = 24 h, replicate number 2, timepoint 24 hours
# [9] = 0 h, replicate number 1, timepoint 0 hours
# [10] = 0 h, replicate number 2, timepoint 0 hours
# Note: unitless GR value; below 1 slowed growth and below 0 cell loss.
SMILES,Growth Rate (HEK-293T; [1]),Growth Rate (HEK-293T; [3]),Growth Rate (HEK-293T; [4]),Growth Rate (HEK-293T; [5]),Growth Rate (HEK-293T; [7]),Growth Rate (Fibroblast; [9]),Growth Rate (Fibroblast; [1]),Growth Rate (Fibroblast; [2]),Growth Rate (Fibroblast; [3]),Growth Rate (Fibroblast; [4]),Growth Rate (Fibroblast; [5]),Growth Rate (Fibroblast; [6]),Growth Rate (Fibroblast; [7]),Growth Rate (Fibroblast; [8]),Growth Rate (U2OS; [9]),Growth Rate (U2OS; [10]),Growth Rate (U2OS; [1]),Growth Rate (U2OS; [3]),Growth Rate (U2OS; [5]),Growth Rate (U2OS; [7]),further results
COc1cc(/C=C/C(=O)NCCn2c(C)cc3ccccc32)cc(OC)c1OC,0.24,0.61,0.51,0.69,0.75,0.86,0.79,0.39,0.87,0.39,0.66,0.71,0.67,0.73,-0.71,-0.39,0.34,0.62,0.51,0.75,Growth Rate (HEK-293T; [2]): 0.36; Growth Rate (HEK-293T; [6]): 0.55; Growth Rate (HEK-293T; [8]): 0.76; Growth Rate (U2OS; [2]): 0.73
Br.Br.N=C(N)NCCSC(=N)N,0.74,0.76,0.86,0.98,1,–,0.23,0.98,0.19,–,0.54,–,0.49,–,-0.2,0.56,–,0.88,0.96,0.37,Growth Rate (HEK-293T; [6]): 0.92; Growth Rate (HEK-293T; [8]): 0.81; Growth Rate (Fibroblast; [10]): 0.9; Growth Rate (U2OS; [2]): 0.98; Growth Rate (U2OS; [4]): 0.99
CCCCC[C@H](O)/C=C/[C@H]1CCC(=O)[C@@H]1CCCCCCC(=O)O,0.64,0.56,0.7,0.7,0.77,-0.34,–,–,–,–,–,–,0.96,–,0.47,–,0.51,0.66,0.5,0.96,Growth Rate (HEK-293T; [9]): 0.81; Growth Rate (HEK-293T; [10]): -0.24; Growth Rate (HEK-293T; [2]): 0.48; Growth Rate (HEK-293T; [6]): 0.73; Growth Rate (HEK-293T; [8]): 0.67; Growth Rate (Fibroblast; [10]): -0.08
CC(COc1ccccc1)N(CCCl)Cc1ccccc1.Cl (centres undefined) [PHENOXYBENZAMINE HYDROCHLORIDE],0.03,0.28,–,0.49,0.56,–,0.45,–,0.55,–,0.49,–,0.51,–,–,0.42,–,–,0.94,–,Growth Rate (HEK-293T; [10]): 0.07; Growth Rate (HEK-293T; [6]): 1
Cc1ccccc1C#Cc1ccc(CCC(=O)O)cc1,0.63,0.72,0.75,0.73,0.74,0.45,–,0.07,–,0.32,–,0.35,–,0.31,0.25,–,0.52,0.67,0.7,0.77,Growth Rate (HEK-293T; [10]): 0.37; Growth Rate (HEK-293T; [2]): 0.81; Growth Rate (HEK-293T; [6]): 0.67; Growth Rate (HEK-293T; [8]): 0.62; Growth Rate (Fibroblast; [10]): 0.93; Growth Rate (U2OS; [2]): 0.9; Growth Rate (U2OS; [6]): 0.92
Cc1cc(=O)n(C)c2cc(N3C(=O)CC[C@H](NS(=O)(=O)CC(C)C)[C@H]3c3ccc(Cl)cc3)ccc12,-0.08,0.15,0.9,0.21,0.18,–,-0.91,-0.68,-0.73,-0.53,-0.76,-0.4,-0.65,-0.38,-0.56,-0.09,0.78,0.8,0.5,0.7,Growth Rate (HEK-293T; [10]): 0.38; Growth Rate (HEK-293T; [6]): 0.76; Growth Rate (HEK-293T; [8]): 0.8; Growth Rate (U2OS; [4]): 0.96
CC[C@H](NC(=O)c1c(C)c(-c2ccccc2)nc2ccccc12)c1ccccc1 [SB-222200],0.76,0.77,0.72,0.97,0.88,–,0.45,-0.34,0.45,0.48,0.64,0.91,0.67,0.98,–,-1,–,–,–,–,Growth Rate (HEK-293T; [2]): 0.41; Growth Rate (U2OS; [4]): 0.93; Growth Rate (U2OS; [6]): 0.84; Growth Rate (U2OS; [8]): 0.93
Cc1cc(OCCCS(C)(=O)=O)cc(C)c1-c1cccc(COc2ccc3c(c2)OC[C@H]3CC(=O)O)c1,–,–,–,0.7,0.69,–,-0.03,0.19,1,0.55,–,0.31,0.78,0.67,0.26,–,–,–,–,–,Growth Rate (Fibroblast; [10]): 0.69; Growth Rate (U2OS; [2]): 0.73; Growth Rate (U2OS; [4]): 0.89; Growth Rate (U2OS; [6]): 0.9
Br.CS(=O)(=O)Nc1c(O)ccc2c1CCCC2C1=NCCN1 (centres undefined),–,0.92,–,–,–,0.32,–,–,–,–,–,–,0.94,–,–,-1,-0.8,0.72,0.68,0.86,Growth Rate (HEK-293T; [2]): 0.33; Growth Rate (Fibroblast; [10]): 0.39
Cc1nc[nH]c1CCN.Cl,–,0.91,–,0.92,0.81,0.7,–,0.14,–,0.83,–,0.58,–,0.86,-0.24,-1,–,–,0.91,–,Growth Rate (HEK-293T; [9]): 0.42; Growth Rate (HEK-293T; [10]): 0.64
CCCCC1=NC2(CCCC2)C(=O)N1Cc1ccc(-c2ccccc2-c2nnn[nH]2)cc1 [IRBESARTAN],–,–,–,0.86,0.68,0.38,-0.26,0.66,-0.32,0.98,0.01,–,0.09,–,–,-1,0.3,0.97,0.72,0.87,Growth Rate (HEK-293T; [9]): 0.8; Growth Rate (HEK-293T; [10]): 0.31; Growth Rate (Fibroblast; [10]): 0.58; Growth Rate (U2OS; [2]): 0.94; Growth Rate (U2OS; [6]): 0.95; Growth Rate (U2OS; [8]): 0.92
Cl.N=C(N)NC(=O)Cc1c(Cl)cccc1Cl [GUANFACINE HYDROCHLORIDE],0.87,0.84,–,0.76,0.76,0.58,–,–,–,–,0.88,0.92,0.38,0.81,–,–,0.84,0.99,–,–,Growth Rate (HEK-293T; [9]): 0.44; Growth Rate (Fibroblast; [10]): 0.01
CC1(C)[C@H]2C[C@H](C/C=C\CCCC(=O)O)[C@@H](NC(=O)c3csc4ccc(O)cc34)[C@@H]1C2,0.73,–,–,0.94,0.85,–,0.09,–,0.51,0.75,0.69,–,–,–,–,-0.79,0.23,0.14,0.37,0.66,Growth Rate (HEK-293T; [10]): 0.67; Growth Rate (U2OS; [2]): 0.91; Growth Rate (U2OS; [6]): 0.81; Growth Rate (U2OS; [8]): 0.86
CC1=C(C)C(=O)C(C(CCCCCC(=O)O)c2ccccc2)=C(C)C1=O (centres undefined) [SERATRODAST],–,–,0.63,–,–,1,0.67,–,–,–,–,–,–,–,-0.5,-1,–,–,–,–,Growth Rate (HEK-293T; [2]): 0.54; Growth Rate (U2OS; [8]): 0.99
CC(C)(C)c1cc(NC(=O)Nc2ccc(-c3cn4c(n3)sc3cc(OCCN5CCOCC5)ccc34)cc2)no1 [QUIZARTINIB],-0.18,–,-0.06,–,–,-0.84,–,–,–,1,–,0.89,–,0.78,–,–,0.41,–,–,–,Growth Rate (HEK-293T; [9]): 0.2; Growth Rate (HEK-293T; [6]): 0.17; Growth Rate (HEK-293T; [8]): 0.22; Growth Rate (Fibroblast; [10]): 0.43; Growth Rate (U2OS; [4]): 0.51; Growth Rate (U2OS; [6]): 0.52; Growth Rate (U2OS; [8]): 0.65
